Data taken from US20260167619A2, “INDOLINE COMPOUNDS AND DERIVATIVES AS EGFR INHIBITORS” (BeOne Medicines I GmbH, priority 2020, published 2026).

Tests used:
[1] = molecular target: T1, EGFR (aa668-1210, Invitrogen) (Homo sapiens, UniProt P00533); test: Biochemical EGFR inhibition assay (TR-FRET), wild-type EGFR; settings: ATP at Km, 15 min pre-incubation, 60 min reaction; read-out: WT (Km ATP) IC50
T1 construct: EGFR (aa668-1210, Invitrogen); purchased Invitrogen
Outline: (§1)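 Recombinant kinase pre-incubated with compound 15 min at room temperature in 50 mM HEPES pH7.5, 10 mM MgCl2, 2 mM DTT, 1 mM EGTA, 0.1% BSA, 0.01% Tween-20; reaction started with ATP at Km plus biotin-poly GT, run 60 min at RT. HTRF read (665/620 nm); IC50 from four-parameter logistic fit.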

[2] = molecular target: T2, EGFR(L858R_T790M_C797S) (aa695-end, Invitrogen) (Homo sapiens, UniProt P00533, C797S/L858R/T790M); test: Biochemical EGFR inhibition assay (TR-FRET), L858R/T790M/C797S mutant; settings: ATP at Km, 15 min pre-incubation, 60 min reaction; read-out: LR_TM_CS (Km ATP) IC50
T2 construct: purchased Invitrogen
T2 sequence (P00533 695-1210 T790M/C797S/L858R): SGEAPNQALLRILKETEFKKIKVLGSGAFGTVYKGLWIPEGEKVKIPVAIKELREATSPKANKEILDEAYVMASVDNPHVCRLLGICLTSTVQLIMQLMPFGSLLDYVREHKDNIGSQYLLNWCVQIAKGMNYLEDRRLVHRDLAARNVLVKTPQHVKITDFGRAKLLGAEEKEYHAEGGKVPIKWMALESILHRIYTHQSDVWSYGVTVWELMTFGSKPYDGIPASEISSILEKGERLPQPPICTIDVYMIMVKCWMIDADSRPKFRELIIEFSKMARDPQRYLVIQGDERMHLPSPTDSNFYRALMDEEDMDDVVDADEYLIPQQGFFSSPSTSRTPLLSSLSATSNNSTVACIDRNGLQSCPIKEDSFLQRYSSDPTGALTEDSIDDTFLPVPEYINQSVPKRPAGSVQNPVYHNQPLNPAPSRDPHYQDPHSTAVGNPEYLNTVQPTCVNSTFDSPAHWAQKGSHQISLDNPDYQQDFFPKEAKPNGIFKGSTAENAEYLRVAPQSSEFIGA
Outline: as §1

[3] = molecular target: EGFR(Dell9_T790M_C797S) (aa 669-1210, in house) (Homo sapiens, UniProt P00533, T790M/C797S, form not given); test: Biochemical EGFR inhibition assay (TR-FRET), Del19/T790M/C797S mutant; settings: ATP at Km, 15 min pre-incubation, 60 min reaction; read-out: Del_TM_CS (Km ATP) IC50
Chain of EGFR(Dell9_T790M_C797S) (aa 669-1210, in house) (P00533 with tags, fused parts or gaps DEL746-750/T790M/C797S, form open): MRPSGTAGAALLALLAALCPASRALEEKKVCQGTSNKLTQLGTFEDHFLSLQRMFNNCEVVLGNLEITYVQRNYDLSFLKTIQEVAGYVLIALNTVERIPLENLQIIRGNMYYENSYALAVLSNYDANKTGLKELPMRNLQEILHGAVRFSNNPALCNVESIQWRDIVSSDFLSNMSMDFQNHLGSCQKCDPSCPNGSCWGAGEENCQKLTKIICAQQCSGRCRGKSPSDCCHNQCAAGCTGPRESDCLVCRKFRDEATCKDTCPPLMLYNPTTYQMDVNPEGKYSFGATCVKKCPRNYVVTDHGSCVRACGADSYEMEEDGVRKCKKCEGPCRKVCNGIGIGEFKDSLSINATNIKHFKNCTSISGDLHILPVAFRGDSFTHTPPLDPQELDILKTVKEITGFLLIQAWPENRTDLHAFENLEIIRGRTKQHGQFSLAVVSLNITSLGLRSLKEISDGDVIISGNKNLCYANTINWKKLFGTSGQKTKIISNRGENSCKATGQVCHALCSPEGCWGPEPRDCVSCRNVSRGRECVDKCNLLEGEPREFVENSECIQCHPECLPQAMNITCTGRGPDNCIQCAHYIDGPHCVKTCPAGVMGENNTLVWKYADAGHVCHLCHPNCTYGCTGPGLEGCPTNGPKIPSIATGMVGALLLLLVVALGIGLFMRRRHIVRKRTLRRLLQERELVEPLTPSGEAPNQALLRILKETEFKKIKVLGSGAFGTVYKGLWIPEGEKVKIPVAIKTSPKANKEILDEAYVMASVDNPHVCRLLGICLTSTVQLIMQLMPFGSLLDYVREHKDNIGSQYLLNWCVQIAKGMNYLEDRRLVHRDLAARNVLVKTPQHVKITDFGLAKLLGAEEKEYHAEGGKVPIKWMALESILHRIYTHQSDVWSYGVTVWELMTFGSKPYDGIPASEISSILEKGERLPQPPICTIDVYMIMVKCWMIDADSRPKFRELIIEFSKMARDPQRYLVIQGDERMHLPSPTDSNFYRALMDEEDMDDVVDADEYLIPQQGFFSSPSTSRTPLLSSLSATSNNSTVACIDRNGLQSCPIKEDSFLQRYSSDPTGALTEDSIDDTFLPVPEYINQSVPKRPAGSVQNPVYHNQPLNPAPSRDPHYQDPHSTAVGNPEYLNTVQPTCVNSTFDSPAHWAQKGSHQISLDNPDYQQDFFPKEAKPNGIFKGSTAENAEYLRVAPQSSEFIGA
Outline: as §1

BaF3-WT cells = BaF3-WT cells (Homo sapiens, UniProt P00533); test: Cell antiproliferation assay (CellTiter-Glo), BaF3-WT; assay type: cell-based; settings: 48 h treatment, read-out: BaF3-WT IC50
Chain of BaF3-WT cells (P00533 whole entry, change not shown): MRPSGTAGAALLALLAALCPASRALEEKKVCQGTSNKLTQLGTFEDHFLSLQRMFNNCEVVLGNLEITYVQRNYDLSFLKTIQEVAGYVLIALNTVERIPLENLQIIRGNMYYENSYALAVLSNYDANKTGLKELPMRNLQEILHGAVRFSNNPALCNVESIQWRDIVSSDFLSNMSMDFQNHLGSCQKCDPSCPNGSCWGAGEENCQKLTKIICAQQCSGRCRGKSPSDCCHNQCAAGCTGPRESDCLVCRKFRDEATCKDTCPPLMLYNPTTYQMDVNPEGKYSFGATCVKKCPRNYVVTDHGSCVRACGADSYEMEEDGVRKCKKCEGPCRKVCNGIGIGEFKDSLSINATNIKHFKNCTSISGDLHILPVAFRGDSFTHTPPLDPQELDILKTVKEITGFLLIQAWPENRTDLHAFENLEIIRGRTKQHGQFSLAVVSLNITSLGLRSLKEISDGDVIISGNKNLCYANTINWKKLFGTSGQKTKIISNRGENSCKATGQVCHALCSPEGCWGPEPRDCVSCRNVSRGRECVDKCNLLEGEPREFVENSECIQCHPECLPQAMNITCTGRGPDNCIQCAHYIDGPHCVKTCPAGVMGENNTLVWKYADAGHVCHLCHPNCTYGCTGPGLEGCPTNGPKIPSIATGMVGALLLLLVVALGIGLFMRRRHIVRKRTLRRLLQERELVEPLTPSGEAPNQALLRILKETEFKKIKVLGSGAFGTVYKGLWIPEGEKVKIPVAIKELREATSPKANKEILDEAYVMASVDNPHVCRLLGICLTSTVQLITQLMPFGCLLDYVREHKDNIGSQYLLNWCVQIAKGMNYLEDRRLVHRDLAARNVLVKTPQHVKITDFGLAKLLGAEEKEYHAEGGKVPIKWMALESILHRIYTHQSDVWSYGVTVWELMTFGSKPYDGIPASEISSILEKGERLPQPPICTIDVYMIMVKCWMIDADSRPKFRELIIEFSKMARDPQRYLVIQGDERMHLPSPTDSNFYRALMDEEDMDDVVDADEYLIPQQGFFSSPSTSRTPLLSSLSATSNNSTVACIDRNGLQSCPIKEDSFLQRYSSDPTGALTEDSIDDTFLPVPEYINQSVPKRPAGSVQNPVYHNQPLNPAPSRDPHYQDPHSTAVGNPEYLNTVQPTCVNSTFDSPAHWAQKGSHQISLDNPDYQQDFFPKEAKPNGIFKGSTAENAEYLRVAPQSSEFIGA
Description: (§2) BaF3 cells are treated with compounds diluted in 0.2% DMSO, dilution is done according to the following protocol: (1) make 500× stock solution in DMSO from 5 mM by 5-fold dilution, total 8 doses were included; (2) make 10× solution in cell culture medium by transferring 2 μl 500× stock solution into 98 μl medium; (3) 10 μl of 10× solution is added to cells and incubate for 48 h.
(§3) After 48 h treatment, add 30 μl CellTiter-Glo reagent[CellTiter-Glo® 2.0, (Promega, Cat #G9242)] to each well; seal the plate and incubate 2 min at room temperature on a plate shaker; Allow the plate to incubate at room temperature for 10 minutes to stabilize the luminescent signal. Record luminescence on BMG PheraStar with luminescence protocol.
(§4) The IC50 value of a compound can be obtained by fitting the following equation
(§5) Wherein, X and Y are known values, and IC50, Hillslope, Top and Bottom are the parameters obtained by fitting with software. Y is the inhibition percentage (calculated from the equation), X is the concentration of the compound; IC50 is the concentration of the compound when the 50% inhibition is reached. The smaller the IC50 value is, the stronger the inhibitory ability of the compound is. Vice versa, the higher the IC50 value is, the weaker the ability the inhibitory ability of the compound is; Hillslope represents the slope of the fitted curve, generally around 1 *; Bottom represents the minimum value of the curve obtained by data fitting, which is generally 0%±20%; Top represents the maximum value of the curve obtained by data fitting, which is generally 100%±20%. The experimental data were fitted by calculating and analyzing with Dotmatics data analysis software.

BaF3-LR_TM_CS cells = BaF3-LR_TM_CS cells (Homo sapiens, UniProt P00533, T790M/C797S/L858R, cells depend on it); test: Cell antiproliferation assay (CellTiter-Glo), BaF3-LR_TM_CS; assay type: cell-based; settings: 48 h treatment, read-out: BaF3-LR_TM_CS IC50
Chain of BaF3-LR_TM_CS cells (P00533 whole entry T790M/C797S/L858R): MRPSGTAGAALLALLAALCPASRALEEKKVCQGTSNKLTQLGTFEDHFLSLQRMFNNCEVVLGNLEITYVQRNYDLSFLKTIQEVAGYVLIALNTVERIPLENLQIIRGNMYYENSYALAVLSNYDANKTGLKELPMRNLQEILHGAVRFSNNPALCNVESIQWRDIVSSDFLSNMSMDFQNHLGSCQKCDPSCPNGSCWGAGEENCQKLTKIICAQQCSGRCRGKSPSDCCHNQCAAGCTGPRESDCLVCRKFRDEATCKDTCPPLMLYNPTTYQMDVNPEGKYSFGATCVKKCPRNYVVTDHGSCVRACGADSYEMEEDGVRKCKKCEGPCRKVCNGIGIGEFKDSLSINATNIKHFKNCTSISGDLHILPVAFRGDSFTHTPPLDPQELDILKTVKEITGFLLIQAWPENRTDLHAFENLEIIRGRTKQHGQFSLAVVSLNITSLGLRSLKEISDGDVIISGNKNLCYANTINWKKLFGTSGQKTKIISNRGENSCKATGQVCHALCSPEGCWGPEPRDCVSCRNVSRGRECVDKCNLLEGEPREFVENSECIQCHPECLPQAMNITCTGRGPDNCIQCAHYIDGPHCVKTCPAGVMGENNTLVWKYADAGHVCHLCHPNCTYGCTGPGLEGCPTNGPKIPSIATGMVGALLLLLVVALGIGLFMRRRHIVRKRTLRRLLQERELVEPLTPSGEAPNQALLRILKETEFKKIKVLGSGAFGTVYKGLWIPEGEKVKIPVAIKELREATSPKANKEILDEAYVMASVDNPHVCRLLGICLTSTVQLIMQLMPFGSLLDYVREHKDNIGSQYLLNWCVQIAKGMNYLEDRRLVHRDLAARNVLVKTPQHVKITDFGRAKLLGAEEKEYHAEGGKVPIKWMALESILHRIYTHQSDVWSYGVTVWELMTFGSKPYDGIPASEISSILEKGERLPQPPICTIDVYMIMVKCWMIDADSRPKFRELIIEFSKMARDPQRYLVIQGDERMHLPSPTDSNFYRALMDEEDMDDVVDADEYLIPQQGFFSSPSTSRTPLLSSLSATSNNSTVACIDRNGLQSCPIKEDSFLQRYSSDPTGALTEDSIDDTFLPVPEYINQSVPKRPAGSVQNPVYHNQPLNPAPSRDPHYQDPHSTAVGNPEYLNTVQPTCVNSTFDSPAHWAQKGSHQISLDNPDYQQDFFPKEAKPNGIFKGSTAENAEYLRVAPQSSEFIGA
Description: as §2, §3, §4, §5

BaF3-Del_TM_CS cells = BaF3-Del_TM_CS cells (Homo sapiens, UniProt P00533, T790M/C797S, cells depend on it, form not given); test: Cell antiproliferation assay (CellTiter-Glo), BaF3-Del_TM_CS; assay type: cell-based; settings: 48 h treatment, read-out: BaF3-Del_TM_CS IC50
Description: as §2, §3, §4, §5

T1 sequence (P00533 668-1210): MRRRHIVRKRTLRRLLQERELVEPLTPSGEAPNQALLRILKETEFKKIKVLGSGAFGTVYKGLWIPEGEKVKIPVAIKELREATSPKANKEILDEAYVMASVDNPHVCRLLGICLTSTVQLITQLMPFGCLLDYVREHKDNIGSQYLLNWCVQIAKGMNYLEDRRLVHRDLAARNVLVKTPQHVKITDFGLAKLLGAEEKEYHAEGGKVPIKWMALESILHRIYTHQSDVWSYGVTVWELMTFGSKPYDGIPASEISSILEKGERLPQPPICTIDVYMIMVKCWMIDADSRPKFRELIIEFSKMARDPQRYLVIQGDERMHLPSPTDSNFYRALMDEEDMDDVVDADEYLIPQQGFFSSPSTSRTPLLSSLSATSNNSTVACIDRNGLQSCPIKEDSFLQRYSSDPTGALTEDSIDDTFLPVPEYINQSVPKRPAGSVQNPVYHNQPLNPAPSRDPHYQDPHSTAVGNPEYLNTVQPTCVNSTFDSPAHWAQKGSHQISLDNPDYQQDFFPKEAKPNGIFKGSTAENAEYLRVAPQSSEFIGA

SMILES | IC50 [1] [nM] | IC50 [2] [nM] | IC50 [3] [nM] | GI50 (BaF3-WT cells) [nM] | GI50 (BaF3-LR_TM_CS cells) [nM] | GI50 (BaF3-Del_TM_CS cells) [nM]
COc1cc(N2CCC(N3CCN(C)CC3)CC2)ccc1Nc1ncc(Cl)c(Nc2cccc3c2N(S(=O)(=O)CC2CC(F)(F)C2)CC3)n1 [Example 11, 5-chloro-N^4-(1-(((3,3-difluorocyclobutyl)methyl)sulfonyl)indolin-7-yl)-N^2-(2-methoxy-4-(4-(4-methylpiperazin-1-yl)piperidin-1-yl)phenyl)pyrimidine-2,4-diamine] | 37 | 5.5 | 38 | 2280 | 377 | 453
COc1cc(N2CCC(N3CCN(C)CC3)CC2)ccc1Nc1ncc(Cl)c(Nc2cc(C)cc3c2N(S(C)(=O)=O)CC3)n1 [Example 5, 5-chloro-N^2-(2-methoxy-4-(4-(4-methylpiperazin-1-yl)piperidin-1-yl)phenyl)-N^4-(5-methyl-1-(methylsulfonyl)indolin-7-yl)pyrimidine-2,4-diamine] | 311 | 162 | 159 | 2320 | 1290 | 971
COc1cc(N2CCC(N3CCN(C)CC3)CC2)ccc1Nc1ncc(Cl)c(Nc2cccc3c2N(C(C)=O)CC3)n1 [Example 17, 1-(7-((5-chloro-2-((2-methoxy-4-(4-(4-methylpiperazin-1-yl)piperidin-1-yl)phenyl)amino)pyrimidin-4-yl)amino)indolin-1-yl)ethan-1-one] | 21 | 6.7 | 15 | 1710 | 366 | 183
CCN1CCN(C2CCN(c3ccc(Nc4nc(Nc5cccc6c5N(S(C)(=O)=O)CC6)c5cc[nH]c5n4)cc3F)CC2)CC1 [Example 77, N^2-(4-(4-(4-ethylpiperazin-1-yl)piperidin-1-yl)-3-fluorophenyl)-N^4-(1-(methylsulfonyl)indolin-7-yl)-7H-pyrrolo[2,3-d]pyrimidine-2,4-diamine] | 18 | 0.29 | 0.33 | 388 | 62 | 8.3
COc1cc(N2CCC3(CC2)CN(C)C3)c(C)cc1Nc1nc(Nc2cccc3c2N(S(C)(=O)=O)CC3)c2cc[nH]c2n1 [Example 100, N^2-(2-methoxy-5-methyl-4-(2-methyl-2,7-diazaspiro[3.5]nonan-7-yl)phenyl)-N^4-(1-(methylsulfonyl)indolin-7-yl)-7H-pyrrolo[2,3-d]pyrimidine-2,4-diamine] | 49 | 0.92 | 1 | 1590 | 116 | 39.9
CN(C)C1CCN(c2ccc(Nc3nc(Nc4cccc5c4N(S(C)(=O)=O)CC5)c4cc[nH]c4n3)c3c2CCO3)CC1 [Example 124, N^2-(4-(4-(dimethylamino)piperidin-1-yl)-2,3-dihydrobenzofuran-7-yl)-N^4-(1-(methylsulfonyl)indolin-7-yl)-7H-pyrrolo[2,3-d]pyrimidine-2,4-diamine] | 107 | 1 | 1 | 460 | 106 | 39.1
COc1cc(N2CCC(N3CCN(C)CC3)CC2)c(Cl)cc1Nc1nc(Nc2cccc3c2N(S(C)(=O)=O)CC3)c2cc[nH]c2n1 [Example 95, N^2-(5-chloro-2-methoxy-4-(4-(4-methylpiperazin-1-yl)piperidin-1-yl)phenyl)-N^4-(1-(methylsulfonyl)indolin-7-yl)-7H-pyrrolo[2,3-d]pyrimidine-2,4-diamine] | 28 | 0.79 | 1.4 | 1960 | 83.8 | 9.58
CN(C)C1CCN(c2ccc(Nc3ncc(Br)c(Nc4cccc5c4N(S(C)(=O)=O)CC5)n3)c3c2OCO3)CC1 [Example 52, 5-bromo-N^2-(7-(4-(dimethylamino)piperidin-1-yl)benzo[d][1,3]dioxol-4-yl)-N^4-(1-(methylsulfonyl)indolin-7-yl)pyrimidine-2,4-diamine] | 5.5 | 0.42 | 0.12 | 145 | 18.7 | 11.2
COc1cc(N2CCC(N3CCN(C)CC3)CC2)ccc1Nc1nc2c(c(Nc3cccc4c3N(S(C)(=O)=O)CC4)n1)CCC2 [Example 74, N^2-(2-methoxy-4-(4-(4-methylpiperazin-1-yl)piperidin-1-yl)phenyl)-N^4-(1-(methylsulfonyl)indolin-7-yl)-6,7-dihydro-5H-cyclopenta[d]pyrimidine-2,4-diamine] | 525 | 53 | 131 | 2350 | 617 | 436

These reach a lower IC50 [1]. Values come first.

IC50 [1] [nM] | IC50 [2] [nM] | IC50 [3] [nM] | GI50 (BaF3-WT cells) [nM] | GI50 (BaF3-LR_TM_CS cells) [nM] | GI50 (BaF3-Del_TM_CS cells) [nM] | SMILES
4.7 | 0.61 | 1.6 | 853 | 141 | 27.4 | COc1cc(N2CCC(N3CCN(C)CC3)CC2)ccc1Nc1nc(Nc2cccc3c2N(S(C)(=O)=O)CC3)c2c(Cl)c[nH]c2n1 [Example 73, 5-chloro-N^2-(2-methoxy-4-(4-(4-methylpiperazin-1-yl)piperidin-1-yl)phenyl)-N^4-(1-(methylsulfonyl)indolin-7-yl)-7H-pyrrolo[2,3-d]pyrimidine-2,4-diamine]
3.1 | 1.4 | 1.3 | 2600 | 2200 | 246 | COc1cc(N2CCC(N3CCN(C)CC3)CC2)ccc1Nc1nc(Nc2cccc3c2N(S(C)(=O)=O)CC3)c2nc[nH]c2n1 [Example 72, N^2-(2-methoxy-4-(4-(4-methylpiperazin-1-yl)piperidin-1-yl)phenyl)-N^6-(1-(methylsulfonyl)indolin-7-yl)-9H-purine-2,6-diamine]
1.3 | 1.3 | 1 | 328 | 225 | 68.5 | COc1cc(N2CCC(N3CCN(C)CC3)CC2)ccc1Nc1ncc(C#N)c(Nc2cccc3c2N(S(C)(=O)=O)CC3)n1 [Example 33, 2-((2-methoxy-4-(4-(4-methylpiperazin-1-yl)piperidin-1-yl)phenyl)amino)-4-((1-(methylsulfonyl)indolin-7-yl)amino)pyrimidine-5-carbonitrile]
0.78 | 0.21 | 0.36 | 230 | 4.91 | 1.56 | COc1cc(N2CCC(N3CCN(C)CC3)CC2)c(C)cc1Nc1ncc(Br)c(Nc2cccc3c2N(S(C)(=O)=O)CC3)n1 [Example 40, 5-bromo-N^2-(2-methoxy-5-methyl-4-(4-(4-methylpiperazin-1-yl)piperidin-1-yl)phenyl)-N^4-(1-(methylsulfonyl)indolin-7-yl)pyrimidine-2,4-diamine]
0.56 | 0.41 | 0.22 | 414 | 25.9 | 10 | COc1cc(N2CCC(N(C)C)CC2)ccc1Nc1ncc(Cl)c(Nc2cccc3c2N(S(C)(=O)=O)CC3)n1 [Example 36, 5-chloro-N^2-(4-(4-(dimethylamino)piperidin-1-yl)-2-methoxyphenyl)-N^4-(1-(methylsulfonyl)indolin-7-yl)pyrimidine-2,4-diamine]
